Test results: PubChem BioAssay AID1918946 (Molecular Pharmacology Branch, DTP, NCI, 2023)

Test system: 885512-296-R-J2-PDC complex spheroid viability
Experiment: Anticancer human tumor 885512-296-R-J2-PDC patient-derived breast carcinoma cell line growth inhibition
Settings: for IC50: curve of first compound; for viability, T/C: stronger effect = lower value
Outline: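 Multicellular complex spheroids of tumor cells with human endothelial cells (HUVEC) and mesenchymal stem cells; the LSD1 inhibitor iadademstat was combined with standard-of-care or investigational agents. Top concentration at or near clinical Cmax, half-log dilutions; final DMSO ≤0.25%.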

[1] = second compound 0.1 µM, first compound 0.000949 µM
[2] = second compound 0.1 µM, first compound 0.003 µM
[3] = second compound 0.1 µM, first compound 0.00949 µM
[4] = second compound 0.1 µM, first compound 0.03 µM
[5] = second compound 0.1 µM, first compound 0.0949 µM
[6] = second compound 0.1 µM, first compound 0.3 µM
[7] = second compound 0.316 µM, first compound 0.000949 µM
[8] = second compound 0.316 µM, first compound 0.003 µM
[9] = second compound 0.316 µM, first compound 0.00949 µM
[10] = second compound 0.316 µM, first compound 0.03 µM
[11] = second compound 0.316 µM, first compound 0.0949 µM
[12] = second compound 0.316 µM, first compound 0.3 µM
[13] = second compound 1 µM, first compound 0.000949 µM
[14] = second compound 1 µM, first compound 0.003 µM
[15] = second compound 1 µM, first compound 0.00949 µM
[16] = second compound 1 µM, first compound 0.03 µM
[17] = second compound 1 µM, first compound 0.0949 µM
[18] = second compound 1 µM, first compound 0.3 µM
[19] = second compound 3.16 µM, first compound 0.000949 µM
[20] = second compound 3.16 µM, first compound 0.003 µM
[21] = second compound 3.16 µM, first compound 0.00949 µM
[22] = second compound 3.16 µM, first compound 0.03 µM
[23] = second compound 3.16 µM, first compound 0.0949 µM
[24] = second compound 3.16 µM, first compound 0.3 µM
[25] = second compound 10 µM, first compound 0.000949 µM
[26] = second compound 10 µM, first compound 0.003 µM
[27] = second compound 10 µM, first compound 0.00949 µM
[28] = second compound 10 µM, first compound 0.03 µM
[29] = second compound 10 µM, first compound 0.0949 µM
[30] = second compound 10 µM, first compound 0.3 µM
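Note: spheroids exposed to agents for 7 days before viability read.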

`CCc1c2c(nc3ccc(O)cc13)-c1cc3c(c(=O)n1C2)COC(=O)[C@]3(O)CC` + NC1CC1c1ccc(-c2cccc(O)c2)cc1 was tested, and the IC50 (second compound 0.1 µM) was under 0.949 nM, the IC50 (second compound 0.316 µM) was under 0.949 nM and the IC50 (second compound 1 µM) was under 0.949 nM. It also gave an IC50 (second compound 3.16 µM) of under 0.949 nM, an IC50 (second compound 10 µM) of under 0.949 nM and a viability, T/C [1] of 1.84%. It also gave a viability, T/C [2] of 1.73%, a viability, T/C [3] of 1.08% and a viability, T/C [4] of 1.22%. The viability, T/C [5] was 1.37%, the viability, T/C [6] was 1.16% and the viability, T/C [7] was 2.42%. For the same molecule, the viability, T/C [8] was 1.57%, the viability, T/C [9] was 1.3% and the viability, T/C [10] was 1.37%. For the same molecule, the viability, T/C [11] was 1.16%, the viability, T/C [12] was 1.05% and the viability, T/C [13] was 1.79%. For the same molecule, the viability, T/C [14] was 1.95%, the viability, T/C [15] was 1.46% and the viability, T/C [16] was 1.26%. The viability, T/C [17] was 1.14%, the viability, T/C [18] was 1.13% and the viability, T/C [19] was 2.13%. It also gave a viability, T/C [20] of 1.76%, a viability, T/C [21] of 1.07% and a viability, T/C [22] of 1.01%. It also gave a viability, T/C [23] of 0.8%, a viability, T/C [24] of 0.78% and a viability, T/C [25] of 2.37%. The viability, T/C [26] was 2.17%, the viability, T/C [27] was 1.55% and the viability, T/C [28] was 0.87%. The viability, T/C [29] was 0.91% and the viability, T/C [30] was 0.8%.
Molecule `Nc1ccccc1NC(=O)c1ccc(CNC(=O)OCc2cccnc2)cc1` + NC1CC1c1ccc(-c2cccc(O)c2)cc1 has an IC50 (second compound 0.1 µM) of 48.2 nM, an IC50 (second compound 0.316 µM) of 50.4 nM and an IC50 (second compound 1 µM) of 41.9 nM. The IC50 (second compound 3.16 µM) was 43.1 nM, the IC50 (second compound 10 µM) was 23.9 nM and the viability, T/C [3] was 99.3%. The viability, T/C [4] was 63.1%, the viability, T/C [5] was 30.5% and the viability, T/C [6] was 17.5%. It also gave a viability, T/C (second compound 0.1 µM, first compound 0.949 µM) of 6.69%, a viability, T/C (second compound 0.1 µM, first compound 3 µM) of 0.26% and a viability, T/C [9] of 104%. It also gave a viability, T/C [10] of 61.7%, a viability, T/C [11] of 37.2% and a viability, T/C [12] of 12.3%. It also gave a viability, T/C (second compound 0.316 µM, first compound 0.949 µM) of 5.8%, a viability, T/C (second compound 0.316 µM, first compound 3 µM) of 0.31% and a viability, T/C [15] of 102%. For the same molecule, the viability, T/C [16] was 53.8%, the viability, T/C [17] was 35.2% and the viability, T/C [18] was 15%. It also gave a viability, T/C (second compound 1 µM, first compound 0.949 µM) of 5.26%, a viability, T/C (second compound 1 µM, first compound 3 µM) of 0.29% and a viability, T/C [21] of 94.2%. The viability, T/C [22] was 57.9%, the viability, T/C [23] was 32.8% and the viability, T/C [24] was 12.7%. It also gave a viability, T/C (second compound 3.16 µM, first compound 0.949 µM) of 5.2%, a viability, T/C (second compound 3.16 µM, first compound 3 µM) of 0.22% and a viability, T/C [27] of 65.8%. For the same molecule, the viability, T/C [28] was 45.7%, the viability, T/C [29] was 27.9% and the viability, T/C [30] was 12.9%. It also gave a viability, T/C (second compound 10 µM, first compound 0.949 µM) of 4.05% and a viability, T/C (second compound 10 µM, first compound 3 µM) of 0.22%.
In the case of `Nc1ccn(C2OC(CO)C(O)C2(F)F)c(=O)n1` (stereo not given) + NC1CC1c1ccc(-c2cccc(O)c2)cc1, the IC50 (second compound 0.1 µM) is reported as under 0.949 nM, the IC50 (second compound 0.316 µM) is reported as under 0.949 nM and the IC50 (second compound 1 µM) is reported as under 0.949 nM. The IC50 (second compound 3.16 µM) was under 0.949 nM, the IC50 (second compound 10 µM) was under 0.949 nM and the viability, T/C [1] was 13.8%. For the same molecule, the viability, T/C [2] was 2.18%, the viability, T/C [3] was 2% and the viability, T/C [4] was 2.39%. For the same molecule, the viability, T/C [5] was 2.84%, the viability, T/C [6] was 2.16% and the viability, T/C [7] was 17.7%. It also gave a viability, T/C [8] of 2.09%, a viability, T/C [9] of 1.82% and a viability, T/C [10] of 2.16%. For the same molecule, the viability, T/C [11] was 2.14%, the viability, T/C [12] was 2.23% and the viability, T/C [13] was 12.1%. It also gave a viability, T/C [14] of 2.01%, a viability, T/C [15] of 2.01% and a viability, T/C [16] of 2.18%. It also gave a viability, T/C [17] of 2.05%, a viability, T/C [18] of 2.5% and a viability, T/C [19] of 15.3%. It also gave a viability, T/C [20] of 2.08%, a viability, T/C [21] of 2.46% and a viability, T/C [22] of 1.83%. It also gave a viability, T/C [23] of 2.59%, a viability, T/C [24] of 2.46% and a viability, T/C [25] of 15.8%. It also gave a viability, T/C [26] of 2.15%, a viability, T/C [27] of 2.26% and a viability, T/C [28] of 2.65%. The viability, T/C [29] was 2.46% and the viability, T/C [30] was 3.06%.
Molecule `O=C(c1cc(Cc2n[nH]c(=O)c3ccccc23)ccc1F)N1CCN(C(=O)C2CC2)CC1` + NC1CC1c1ccc(-c2cccc(O)c2)cc1 has an IC50 (second compound 0.1 µM) of 945 nM, an IC50 (second compound 0.316 µM) of 896 nM and an IC50 (second compound 1 µM) of 805 nM. It also gave an IC50 (second compound 3.16 µM) of 660 nM, an IC50 (second compound 10 µM) of 361 nM and a viability, T/C (second compound 0.1 µM, first compound 0.0316 µM) of 116%. It also gave a viability, T/C (second compound 0.1 µM, first compound 0.1 µM) of 106%, a viability, T/C (second compound 0.1 µM, first compound 0.316 µM) of 90.9% and a viability, T/C (second compound 0.1 µM, first compound 1 µM) of 48.6%. For the same molecule, the viability, T/C (second compound 0.1 µM, first compound 3.16 µM) was 13.1%, the viability, T/C (second compound 0.1 µM, first compound 10 µM) was 4.93% and the viability, T/C (second compound 0.316 µM, first compound 0.0316 µM) was 103%. For the same molecule, the viability, T/C (second compound 0.316 µM, first compound 0.1 µM) was 114%, the viability, T/C (second compound 0.316 µM, first compound 0.316 µM) was 76.6% and the viability, T/C (second compound 0.316 µM, first compound 1 µM) was 51.7%. The viability, T/C (second compound 0.316 µM, first compound 3.16 µM) was 10.8%, the viability, T/C (second compound 0.316 µM, first compound 10 µM) was 5.15% and the viability, T/C (second compound 1 µM, first compound 0.0316 µM) was 96.9%. The viability, T/C (second compound 1 µM, first compound 0.1 µM) was 105%, the viability, T/C (second compound 1 µM, first compound 0.316 µM) was 88.7% and the viability, T/C (second compound 1 µM, first compound 1 µM) was 40.4%. For the same molecule, the viability, T/C (second compound 1 µM, first compound 3.16 µM) was 13.3%, the viability, T/C (second compound 1 µM, first compound 10 µM) was 4.98% and the viability, T/C (second compound 3.16 µM, first compound 0.0316 µM) was 111%. For the same molecule, the viability, T/C (second compound 3.16 µM, first compound 0.1 µM) was 80.8%, the viability, T/C (second compound 3.16 µM, first compound 0.316 µM) was 75.9% and the viability, T/C (second compound 3.16 µM, first compound 1 µM) was 41.1%. It also gave a viability, T/C (second compound 3.16 µM, first compound 3.16 µM) of 9.4%, a viability, T/C (second compound 3.16 µM, first compound 10 µM) of 4.81% and a viability, T/C (second compound 10 µM, first compound 0.0316 µM) of 80.1%. The viability, T/C (second compound 10 µM, first compound 0.1 µM) was 70%, the viability, T/C (second compound 10 µM, first compound 0.316 µM) was 55.1% and the viability, T/C (second compound 10 µM, first compound 1 µM) was 22.2%. The viability, T/C (second compound 10 µM, first compound 3.16 µM) was 6.21% and the viability, T/C (second compound 10 µM, first compound 10 µM) was 4.07%.
